Reference: paper PMC7699381, “Rare-Earth Metal Complexes of the Antibacterial Drug Oxolinic Acid: Synthesis, Characterization, DNA/Protein Binding and Cytotoxicity Studies” (Molecules, 2020)

Experiments:
[1] = target: T1, Human serum albumin (HSA) (Homo sapiens, UniProt P02768); test: Fluorescence quenching of human serum albumin; settings: 298 K; for Ksv (Stern-Volmer constant), HSA: 2.5 µM HSA, 0–8 µM compound, pH 7.4; for Kq (bimolecular quenching constant), HSA: from KSV = Kq τ0; for fa (fraction of fluorophore accessible to the quencher), HSA: modified Stern-Volmer
T1 sequence (P02768 25-609): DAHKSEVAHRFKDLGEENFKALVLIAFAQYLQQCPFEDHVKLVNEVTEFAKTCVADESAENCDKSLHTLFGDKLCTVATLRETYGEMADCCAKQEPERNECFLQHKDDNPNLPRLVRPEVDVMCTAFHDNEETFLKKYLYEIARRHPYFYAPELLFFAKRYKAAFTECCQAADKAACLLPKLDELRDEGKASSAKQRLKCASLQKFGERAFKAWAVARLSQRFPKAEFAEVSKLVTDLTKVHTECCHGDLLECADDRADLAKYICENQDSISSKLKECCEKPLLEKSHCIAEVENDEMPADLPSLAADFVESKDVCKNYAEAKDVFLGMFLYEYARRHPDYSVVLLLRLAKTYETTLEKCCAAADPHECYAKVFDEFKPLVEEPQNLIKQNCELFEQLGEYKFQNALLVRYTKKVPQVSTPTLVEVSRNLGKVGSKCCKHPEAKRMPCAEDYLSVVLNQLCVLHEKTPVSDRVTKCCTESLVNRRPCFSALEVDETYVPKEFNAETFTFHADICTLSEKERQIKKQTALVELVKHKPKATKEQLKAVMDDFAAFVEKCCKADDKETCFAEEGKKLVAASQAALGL

[2] = target: T2, Apo-transferrin (apo-Tf) (Homo sapiens, UniProt P02787); test: Fluorescence quenching of apo-transferrin; format: binding; settings: 298 K; for Ksv (Stern-Volmer constant), apo-Tf: 1 µM apo-Tf, 0–8 µM compound, pH 7.4; for Kq (bimolecular quenching constant), apo-Tf: from KSV = Kq τ0; for fa (fraction of fluorophore accessible to the quencher), apo-Tf: modified Stern-Volmer; for Kd: read-out: Kd, apo-Tf
T2 construct: purchased Sigma Aldrich Chemical Co. (Schnelldorf, Germany)
T2 sequence (P02787 20-698): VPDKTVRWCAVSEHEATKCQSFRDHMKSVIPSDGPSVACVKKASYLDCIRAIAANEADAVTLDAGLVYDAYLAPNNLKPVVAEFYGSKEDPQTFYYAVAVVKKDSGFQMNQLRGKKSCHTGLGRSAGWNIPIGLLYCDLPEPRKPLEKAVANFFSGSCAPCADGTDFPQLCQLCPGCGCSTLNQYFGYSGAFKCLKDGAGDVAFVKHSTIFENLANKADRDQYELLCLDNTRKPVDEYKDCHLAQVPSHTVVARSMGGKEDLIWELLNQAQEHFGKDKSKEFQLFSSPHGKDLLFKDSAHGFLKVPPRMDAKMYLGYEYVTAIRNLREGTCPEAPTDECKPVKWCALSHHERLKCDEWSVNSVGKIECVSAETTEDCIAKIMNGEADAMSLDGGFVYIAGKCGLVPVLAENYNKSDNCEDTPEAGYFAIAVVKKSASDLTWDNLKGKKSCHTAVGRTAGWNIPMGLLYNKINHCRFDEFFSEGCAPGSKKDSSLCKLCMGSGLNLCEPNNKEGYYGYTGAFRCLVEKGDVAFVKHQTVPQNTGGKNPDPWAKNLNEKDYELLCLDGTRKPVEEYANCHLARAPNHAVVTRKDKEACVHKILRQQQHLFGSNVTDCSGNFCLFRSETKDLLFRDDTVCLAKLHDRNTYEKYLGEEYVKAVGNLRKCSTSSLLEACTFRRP

[3] = system: EB-DNA system (CT-DNA); test: Competitive binding assay with ethidium bromide (EB) through fluorescence spectroscopy; parameters: species or system calf; settings: 10 µM CT-DNA, 2 µM EB; for Ksv (Stern-Volmer quenching constant, EB-DNA system): 0–40 µM compound, λex 500 nm; for K50 (EB Displacement Assay): concentration corresponding to 50% binding
Source text: The manner of binding to the DNA macromolecule can be investigated through competitive binding studies with ethidium bromide (3,8-diamino-5-ethyl-6-phenylphenanthridinium bromide), a fluorescent dye; due to its aromatic ring, it can intercalate between two adjacent base pairs in the DNA structure and form a complex which emits fluorescent light; displacing EB results in a quenching effect. The Stern-Volmer constant (KSV) and the dissociation constant (K50) have been calculated from the resulting data.
Competitive binding studies were carried out on a Jasco FP 6500 fluorometer at room temperature, using quartz cells of 1 cm path-length. The fluorescence spectra were recorded on 1.6 mL samples containing 10 µM CT-DNA and 2 µM EB in the absence and presence of increasing amounts (0–40 µM with an increment of 5 µM) of complexes and free ligands, respectively, after being kept in contact for 10 min at room temperature, under continuous stirring and in the dark. The excitation wavelength used was 500 nm and the spectra was recorded in the 520–800 nm range. Two control samples were used, the first one containing DMSO, DNA and EB and the second one just the complex.
Data from the assay can be interpreted using the classical Stern-Volmer equation (Equation (3)):(3) F0/F=1+ KSV·[Q] where F0 and F are the fluorescence intensities of the EB-DNA samples in the absence and presence of the tested compounds and [Q] is the concentration of the compound; KSV is the Stern-Volmer constant and can be calculated from the plot of F0/F vs. [Q] as the slope.
The ratio of binding relative to the control sample exposed only to DMSO was plotted against the logarithm of concentration. The data points were fitted using the modified Hill function with offset (Origin®) (Equation (4)):(4) y=A1+(A2−A1)×x^n/K50^n+x^n where y is the ratio of binding (F/F0) and x is the concentration, A1 is the minimum of y values, A2 is the maximum of y values, K50 is the concentration corresponding to 50% binding and n is the Hill coefficient.

[4] = target: T1, Human serum albumin (HSA)
[5] = system: CT-DNA (double-stranded calf-thymus DNA); test: DNA binding by UV-Vis spectra (titration with CT-DNA); settings: 20 µM compound, 0–40 µM DNA, Tris-HCl pH 7.4, room temperature
[6] = system: HUVEC (normal human umbilical vein endothelial cells); test: MTS cytotoxicity assay, HUVEC normal cells; format: cell-based; settings: 48 h of incubation
Method: (§1) For the evaluation of the cytotoxic effects of the complexes and ligand two human cancer cell lines were used, namely MDA-MB 231 (human breast adenocarcinoma) and LoVo (human colon adenocarcinoma); a normal cell line, human umbilical vein endothelial cells (HUVEC), was used as a reference. […] After 24 h and 48 h, respectively, cell viability was evaluated through MTS assay (data shown in Figures S16–S18) and the IC50 values were calculated (Table 5). The cytotoxicity assay is based on the ability of metabolically active cells to reduce MTS, a yellow tetrazolium salt, to the colored formazan, soluble in the culture medium; the concentration of formazan can be spectrophotometrically determined. […] PES is a cationic dye with high chemical stability that binds to MTS and forms a stable solution. […] The reduced MTS to formazan was spectrophotometrically measured at λ = 492 nm. The test was run on two cancer cell lines, LoVo and MDA-MB 231, and on a normal cell line, HUVEC. […] Cell viability data were obtained in triplicate (n = 3) and expressed as mean values ± standard deviations (SD). […] All assays were performed in 96-well microtiter plates with flat bottom (Falcon), using CellTiter 96 Aqueous One Solution Cell Proliferation Assay (Promega), an MTS-based colorimetric assay. The formazan was spectrophotometrically measured using the Tecan GENios Spectrophotometer.

[7] = system: LoVo (human colon adenocarcinoma); test: MTS cytotoxicity assay, LoVo cells; format: cell-based; settings: 48 h of incubation
Method: as §1

[8] = system: MDA-MB 231 (human breast adenocarcinoma); test: MTS cytotoxicity assay, MDA-MB 231 cells; format: cell-based; settings: 48 h of incubation
Method: as §1

Row | Compound | Ka (association binding constant), HSA [1] | n (Hill Coefficient), HSA [1] | n (Number of Binding Sites), HSA [1] | Ksv (Stern-Volmer constant), HSA [1] | Kq (bimolecular quenching constant), HSA [1] | fa (fraction of fluorophore accessible to the quencher), HSA [1] | Ka (association binding constant), apo-Tf [2] | n (Hill Coefficient), apo-Tf [2] | n (Number of Binding Sites), apo-Tf [2] | Ksv (Stern-Volmer constant), apo-Tf [2] | Kq (bimolecular quenching constant), apo-Tf [2] | fa (fraction of fluorophore accessible to the quencher), apo-Tf [2] | Kd [2] | Ksv (Stern-Volmer quenching constant, EB-DNA system) [3] | K50 (EB Displacement Assay) [3] | Kd [4] | Kb (DNA binding constant) [5] | IC50 [6] | IC50 [7] | IC50 [8] | other results
1 | CCn1cc(C(=O)[O][Sm]([OH])[O]C(=O)c2cn(CC)c3cc4c(cc3c2=O)OCO4)c(=O)c2cc3c(cc21)OCO3.O.O [Sm oxo, [Sm(oxo)(OH)(H2O)] · H2O] | (4.28 ± 2.12) × 10^5 M^−1 | 1.55 ± 0.37 | 1.11 ± 0.04 | (6.56 ± 0.90) × 10^4 M^−1 | 6.56e+12 M⁻¹ s⁻¹ | 1.44 ± 0.15 | (4.16 ± 1.09) × 10^4 M^−1 | 2.03 ± 0.32 | 0.95 ± 0.02 | (9.34 ± 0.66) × 10^4 M^−1 | 9.34e+12 M⁻¹ s⁻¹ | 0.85 ± 0.05 | 5.73 ± 0.55 µM | (1.21 ± 0.03) × 10^4 | 41.55 ± 19.32 µM | 4.69 ± 0.87 µM | 9.33 (± 1.46) × 10^4 L∙mol^−1 | > 200 µM | 41.5 ± 15.3 µM | 40.4 ± 6.27 µM | –
2 | CCn1cc(C(=O)[O][La]([OH])[O]C(=O)c2cn(CC)c3cc4c(cc3c2=O)OCO4)c(=O)c2cc3c(cc21)OCO3.O [La oxo, [La(oxo)(OH)(H2O)]] | (5.80 ± 2.01) × 10^5 M^−1 | 1.74 ± 0.21 | 1.14 ± 0.02 | (6.82 ± 0.74) × 10^4 M^−1 | 6.82e+12 M⁻¹ s⁻¹ | 1.26 ± 0.11 | (0.53 ± 0.23) × 10^4 M^−1 | 1.71 ± 0.21 | 0.77 ± 0.03 | (14.13 ± 1.46) × 10^4 M^−1 | 1.413e+13 M⁻¹ s⁻¹ | 0.68 ± 0.03 | 8.89 ± 2.11 µM | 1.27 (±0.03) × 10^4 | 37.05 ± 8.86 µM | 6.22 ± 1.05 µM | 2.57 (± 0.17) × 10^5 L∙mol^−1 | > 200 µM | 52.1 ± 5.54 µM | > 100 µM | Ksv (Stern-Volmer quenching constant, EB-DNA system) ([3]; listed as La-oxo): (1.27 ± 0.03) × 10^4
